Measured values from publication PMC12374030, “Hydroxyalkyne–Bithiophene Derivatives: Synthesis and Antileishmanial Activity” (Chemical Biology & Drug Design, 2025).
*1 amine or outer side, *2 acyl side, *3 side chain or, on linkers, in order; H or OH if unused. Where a SMILES comes first, the peptide text is derived from it. Bridges are numbered along the chain shown (N, C = ends). Roman numbers before positions name the chains, in order. [ ]: non-standard residue; d: D form. Actinocin(9to1) = Cc1c2oc3c(C)ccc(C(=O)[*:1])c3nc-2c(C(=O)[*:2])c(N)c1=O; NMeV = CN[C@H](C(=O)O)C(C)C; Sar = CNCC(=O)O

Experiments:
[1] = tested on: L. amazonensis promastigotes; assay: Cell size (FSC-H, flow cytometry); type: cell-based, Leishmania amazonensis; set-up: reduction in cell size: dose or concentration left out as unconfirmed; conditions: positive control, 24 h
Protocol: Promastigotes at 1 × 10^6 parasites mL^−1 treated with BT‐1 for 24 h were washed twice and resuspended in phosphate‐buffered saline (PBS), then analyzed using a FACSCalibur flow cytometer (BD Biosciences, Franklin Lakes, NJ, USA) equipped with CellQuest software. As a positive control, […] actinomycin D was used. A total of 10,000 events were acquired in the region that corresponded to the parasites. Histograms were generated for each sample, where the forward light scatter (FSC‐H) represents the cell volume (Lazarin‐Bidóia et al. [2013]).

[2] = tested on: L. amazonensis promastigotes; assay: Mitochondrial membrane potential (Rh123, flow cytometry); type: cell-based, Leishmania amazonensis; conditions: 24 h
Protocol: Promastigotes at 1 × 10^6 parasites mL^−1 treated with BT‐1 for 24 h were incubated with 5 μg mL^−1 Rh123, a fluorescent probe that accumulates in mitochondria, for 15 min (Menna‐Barreto, Corrêa, et al. [2009]; Menna‐Barreto, Goncalves, et al. [2009]). As a positive control, 100 μM CCCP was used. The data acquisition and analysis were performed using a FACSCalibur flow cytometer (BD Biosciences, Franklin Lakes, NJ, USA) equipped with CellQuest software. A total of 10,000 events were acquired in the region corresponding to the parasites.

[3] = tested on: L. amazonensis promastigote forms; assay: Antiproliferative assay (XTT); type: cell-based, Leishmania amazonensis; conditions: for IC50: Leishmania amazonensis, 72 h, 25°C, XTT, read-out: L. amazonensis (promastigotes) IC50; for Selectivity index (SI): ratio between the CC50 (J774A.1 macrophages) and IC50 (promastigotes)
Protocol: L. amazonensis MHOM/BR/75/Josefa strain was originally isolated from a human case of CL by Dr. […]. Cuba at the University of Brasilia, Brazil (Saraiva et al. [1983]; Cuba et al. [1985]). […] The activity against promastigotes was evaluated by XTT (0.5 mg mL^-1), as previously described (Meshulam et al. [1995]). Absorbance was read in a microplate spectrophotometer (PowerWave XS; BioTek, Winooski, VT, USA) at 450 nm.

[4] = Cytotoxicity assay in macrophages (MTT); type: cell-based; conditions: mouse, J774A.1 macrophages, pH 7.2
Protocol: L. amazonensis MHOM/BR/75/Josefa strain was originally isolated from a human case of CL by Dr. Cesar A. Cuba at the University of Brasilia, Brazil (Saraiva et al. [1983]; Cuba et al. [1985]). Promastigote forms of this strain were maintained axenically in Warren's medium (brain–heart infusion plus hemin and folic acid; pH 7.2) supplemented with 10% heat‐inactivated FBS and maintained at 25°C. J774A.1 macrophages (obtained from the Cell Bank of Rio de Janeiro, RJ, Brazil) were maintained in RPMI‐1640 medium (pH 7.2), supplemented with sodium bicarbonate, L‐glutamine, 10% FBS, and streptomycin and penicillin at 37°C in a 5% CO2 atmosphere.
Cytotoxicity was evaluated in the J774A.1 macrophages. Macrophages (5 × 10^5 cells mL^−1) were cultured in 96‐well microplates containing RPMI‐1640 medium supplemented with 10% FBS. The plates were incubated at 37°C in a 5% CO2 atmosphere for confluent growth of the cells. After 24 h, the compounds were added to each well at increasing concentrations (31.25–1000 μM) and incubated for 48 h at 37°C in a 5% CO2 atmosphere. The cytotoxicity was evaluated by MTT (2 mg mL^−1), as previously described (Mosmann [1983]). Absorbance was read in a microplate spectrophotometer (PowerWave XS; BioTek, […], VT, USA) at 570 nm.

[5] = tested on: L. amazonensis promastigotes; assay: Reactive oxygen species production (H2DCFDA); type: cell-based, Leishmania amazonensis; conditions: positive control, 50 μM
Protocol: Promastigotes at 1 × 10^6 parasites mL^−1 treated with BT‐1 for 24 h were incubated with 10 μM H2DCFDA in the dark for 45 min. As a positive control, 50 μM H2O2 was used. The fluorescence was determined by oxidation of H2DCFDA to the fluorescent product, 2′‐7ʹ dichlorofluorescein (DCF), which was measured in a Victor X3 spectrofluorimeter (PerkinElmer, Waltham, MA, USA) at λex of 488 nm and λem of 530 nm (Shukla et al. [2012]).

[6] = tested on: L. amazonensis promastigotes; assay: Lipid peroxidation assay (DPPP); type: cell-based, Leishmania amazonensis; conditions: positive control, 50 μM
Protocol: Promastigotes at 1 × 10^6 parasites mL^−1 treated with BT‐1 for 24 h were incubated with 50 μM DPPP for 15 min at 22°C. As a positive control, 50 μM H2O2 was used. The fluorescence was determined in a Victor X3 spectrofluorimeter (PerkinElmer, Waltham, MA, USA) at λex of 355 nm and λem of 460 nm. DPPP is essentially nonfluorescent until it is oxidized to a phosphine oxide (DPPP‐O) by peroxides (Okimoto et al. [2000]).

[7] = tested on: L. amazonensis promastigotes; assay: Cell membrane integrity (PI, flow cytometry); type: cell-based, Leishmania amazonensis; conditions: positive control, 40 μM, 5 min
Protocol: Promastigotes at 1 × 10^6 parasites mL^−1 treated with BT‐1 for 24 h were incubated with 0.2 μg mL^−1 PI for 10 min. As a positive control, 40 μM digitonin was used. The data acquisition and analysis were performed using a FACSCalibur flow cytometer (BD Biosciences, Franklin Lakes, NJ, USA) equipped with CellQuest software. A total of 10,000 events were acquired in the region that corresponded to the parasites. Alterations in PI fluorescence were quantified as the percentage increase in fluorescence compared with the untreated parasites (Lazarin‐Bidóia et al. [2013]).

[8] = tested on: L. amazonensis promastigotes; assay: Cell cycle (PI-RNAse A, flow cytometry); type: cell-based, Leishmania amazonensis; conditions: positive control, 40 μM, 24 h
Protocol: Promastigotes at 1 × 10^6 parasites mL^−1 treated with BT‐1 for 24 h were fixed in 70% cold methanol in PBS at 4°C for 2 h. Afterward, the parasites were washed in PBS, 10 μg mL^−1 PI‐RNAse A was added, and the samples were incubated at 37°C for 45 min. The data acquisition and analysis were performed using a FACSCalibur flow cytometer (BD Biosciences, Franklin Lakes, NJ, USA) equipped with CellQuest software. A total of 10,000 events were acquired in the region that corresponded to the parasites. As a positive control, 40 μM miltefosine was used. The percentages of cells in each stage of the cell cycle were determined based on the intensity of the PI fluorescence, which is directly proportional to the DNA content.

Row | SMILES | IC50 [3] [µM] | Selectivity index (SI) [3] | CC50 at 48 h [4] [µM] | other results
1 | Cc1c2oc3c(C)ccc(C(=O)N[C@@H]4C(=O)N[C@H](C(C)C)C(=O)N5CCC[C@H]5C(=O)N(C)CC(=O)N(C)[C@@H](C(C)C)C(=O)O[C@@H]4C)c3nc-2c(C(=O)N[C@@H]2C(=O)N[C@H](C(C)C)C(=O)N3CCC[C@H]3C(=O)N(C)CC(=O)N(C)[C@@H](C(C)C)C(=O)O[C@@H]2C)c(N)c1=O [Actinomycin D, reference compound] (I: T[dV]P[Sar][NMeV] / II: T[dV]P[Sar][NMeV]; ester I:1-I:C, II:1-II:C; linker I:N-II:N via Actinocin(9to1)) | – | – | – | reduction in cell size [1]: 2.05 fold
2 | N#CC(C#N)=NNc1cccc(Cl)c1 [CCCP, carbonyl cyanide m‐chlorophenylhydrazone, reference compound] | – | – | – | Mitochondrial potential: Average (Median) ([2]; positive control 100 μM, Rh123 fluorescence): 6.38; reduction in the mitochondrial membrane potential ([2]; positive control, 100 μM): 342.8 fold
3 | O=Cc1ccc(-c2ccc(C#CCCO)s2)s1 [Compound 2, 5′‐(4‐hydroxy‐but‐1‐ynyl)‐[2,2′]bithiophenyl‐5‐carbaldehyde] | 25.1 ± 0.8 | 7.90 | 198 ± 3.9 | –
4 | CC(C)N=Cc1ccc(-c2ccc(C#CCCO)s2)s1 [Compound 2a] | 44.1 ± 2 | 6.56 | 289 ± 6.5 | –
5 | CCCCN=Cc1ccc(-c2ccc(C#CCCO)s2)s1 [Compound 2b] | 48.5 ± 4.2 | 5.65 | 274 ± 5.2 | –
6 | OCCC#Cc1ccc(-c2ccc(C=NC3CCCCC3)s2)s1 [Compound 2c] | 51.2 ± 1.5 | 5.28 | 271 ± 2.8 | –
7 | NC(=S)NN=Cc1ccc(-c2ccc(C#CCCO)s2)s1 [Compound 2d] | 41.4 ± 0.6 | 5.42 | 224 ± 4.9 | –
8 | CC(C)(O)C#Cc1ccc(-c2ccc(C=O)s2)s1 [Compound 3, 5′‐(3‐hydroxy‐3‐methyl‐but‐1‐ynyl)‐[2,2′]bithiophenyl‐5‐carbaldehyde] | 94 ± 4.2 | 3.00 | 283 ± 6.7 | –
9 | CC(C)N=Cc1ccc(-c2ccc(C#CC(C)(C)O)s2)s1 [Compound 3a] | 49.5 ± 3.1 | 5.68 | 281 ± 6.2 | –
10 | CCCCN=Cc1ccc(-c2ccc(C#CC(C)(C)O)s2)s1 [Compound 3b] | 55.3 ± 5.1 | 5.34 | 296 ± 4.1 | –
11 | CC(C)(O)C#Cc1ccc(-c2ccc(C=NC3CCCCC3)s2)s1 [Compound 3c] | 40.1 ± 1.1 | 5.95 | 238.5 ± 1.9 | –
12 | CC(C)(O)C#Cc1ccc(-c2ccc(/C=N/NC(N)=S)s2)s1 [Compound 3d] | 39.5 ± 5.1 | 5.56 | 220 ± 3.8 | –
13 | OO [Compound H2O2, reference compound] | – | – | – | increase in the production of ROS [5]: 3.5 fold; increase in lipoperoxidation [6]: 3.6 fold
14 | C[C@@H]1CC[C@@]2(OC1)O[C@H]1[C@@H](O)[C@H]3[C@@H]4CC[C@H]5C[C@@H](O[C@@H]6O[C@H](CO)[C@H](O[C@@H]7O[C@H](CO)[C@@H](O)[C@H](O[C@@H]8OC[C@@H](O)[C@H](O)[C@H]8O)[C@H]7O[C@@H]7O[C@H](CO)[C@H](O)[C@H](O[C@@H]8O[C@H](CO)[C@@H](O)[C@H](O)[C@H]8O)[C@H]7O)[C@H](O)[C@H]6O)[C@H](O)C[C@]5(C)[C@H]4CC[C@]3(C)[C@H]1[C@@H]2C [Digitonin, digitonin, reference compound] | – | – | – | increase of PI-stained cells [7]: 3.10 fold
15 | CCCCCCCCCCCCCCCCOP(=O)([O-])OCC[N+](C)(C)C [Miltefosine, miltefosine, reference compound] | – | – | – | increase of cells in sub-G0 phase compared with the untreated control [8]: 12.33 fold
